Data reported in US6127136A, “Detection of dioxin-like compounds by detection of transformed Ah receptor/ARNT complex” (Paracelsian, Inc., priority 1996, dated 2000).
Values joined by “and” are separate entries in the source; they are usually repeats but may differ in a detail not shown here. Equal entries are not always repeated.

Target: T1, transformed Ah receptor (Cavia porcellus, UniProt Q6J287)
T1 construct: TCDD-transformed receptor captured as heterodimer on DRE-oligonucleotide gel; recombinant ARNT added in some protocols
Assay: mini-Ah immunoassay (DRE affinity gel, dot-blot spot density), with or without added recombinant ARNT
Type: biochemical, guinea pig (male Hartley, hepatic cytosol)
Method: Male Hartley guinea pigs weighing 300-350 g were obtained from Cornell Research Animal Resources, Cornell University, Ithaca, N.Y. Guinea pigs were anaesthetized and killed with carbon dioxide. Livers were perfused in situ with 100 mL ice-cold perfusion buffer, excised, trimmed of connective tissue, poorly perfused liver and gall bladder and weighed. The liver was minced and five mL of ice-cold HEDG per gram liver were added and the whole homogenized in a 50 mL homogenizer with teflon pestle using at 200 rpm for a total of seven strokes. Crude homogenate was centrifuged at 12,500 RPM in 50 mL tubes in a JA17 rotor in a Beckman J2-MI preparative centifuge at 4 degrees C for 20 minutes.
Procedure for the mini-Ah Immuno Assay
Preparation of Buffers: 155 uM TCDD stock was prepared by dissolving 1 mg 2,3,7,8-tetrachloro-dibenzo-p-dioxin (Cambridge Isotope Labs) in 20 mL DMSO (dimethylsulfoxide) overnight. 10 uM working dilution of TCDD was prepared by diluting 0.129 mL of the stock with 1.871 mL DMSO. 4M NaCl/HEDG was prepared by adding 116.88 g sodium chloride to 300 mL HEDG and adjusting the volume to 500 mL with HEDG. 0.3 M NaCl/HEDG was prepared by diluting 1.5 mL 4 M NaCl/HEDG to 20 mL with HEDG 0.6 M NaCl/HEDG was prepared by diluting 3.0 mL 4 M NaCl/HEDG to 20 mL with HEDG TBST was prepared by dissolving 1.18 g Tris-base, 6.35 g Tris-HCl, 8.76 g NaCL, and 2 mL Tween 20 in 800 mL water, adjusting volume to 1000 mL. Blocker was prepared by dissolving 10 g non-fat dry milk (Carnation) in 200 mL TBST. AP development buffer was prepared by dissolving 11 g Tris-base, 1.6 g Tris-HCl, 5.84 g Sodium Chloride, 10.2 g Magnesium Chloride hexahydrate, in 800 mL water and adjusting the volume to 1000 mL. BCIP stock was prepared by dissolving 100 mg BCIP (5-Bromo-4-Chloro-3-Indolyl Phosphate) in 2 mL N,N-Dimethylformamide, aliquoting into 66 uL portions, and freezing at -20 C until use. NBT stock was prepared by dissolving 250 mg NBT (Nitro Blue Tetrazolium) in 25 mL water, aliquoting into 660 uL proportions, and storing at -20 C until use. BCIP/NBT developer was prepared immediately before use by mixing one 66 uL aliquot of BCIP and one 660 uL aliquot of NBT in 20 mL AP development buffer.
For a typical mini-Ah immunoassay utilizing 12 samples, 5 mL of Transformed Ah Receptor Affinity Gel slurry described above was pipeted into a 50 mL conical tube. The slurry was washed with 40 mL HEDG and centifuged at 1000 g for 5 min, the supernatant withdrawn and discarded, the pellet washed with 40 mL HEDG, and centrifuged again. After the second centrifugation all but 5 mL of supernatant was withdrawn and the gel thus resuspended in the original volume. 10 mL guinea pig hepatic cytosol was thawed. The thawed cytosol was pooled and then divided into two 5 mL groups and treated with either 5 uL DMSO or 5 uL 10 uM TCDD in DMSO.
Assembly of transformation mixture:In the preferred embodiment of the mini-Ah immunoassay, each sample was composed of one 1.5 mL microfuge tube with the following sequential additions: 90 uL 4 M NaCl/HEDG, 400 uL Transformed Ah Receptor Affinity Gel slurry and 800 uL cytosol (treated with DMSO or TCDD as described above). The three components described above are the minimum components added at that step of the mini-Ah immunoassay. Any additional materials, such as ARNT, anti-ARNT and anti-Rabbit/alkaline phosphatase conjugate, were sometimes also added at this time as described in the specific examples. After assembly of the samples, the tubes were capped and the samples incubated at room temperature for 2 hours with gentle rocking to allow transformation of the Ah receptor to take place, interaction of transformed Ah receptor and ARNT, and binding of the transformed Ah receptor as a heteromer to the DRE oligonucleotide contained on the Transformed Ah Receptor Affinity Gel.
Isolation transformed Ah receptor: After the 2 hour incubation the mixtures were pipetted into the empty column barrels and allowed to drain. […]

T1 sequence (Q6J287 10-846): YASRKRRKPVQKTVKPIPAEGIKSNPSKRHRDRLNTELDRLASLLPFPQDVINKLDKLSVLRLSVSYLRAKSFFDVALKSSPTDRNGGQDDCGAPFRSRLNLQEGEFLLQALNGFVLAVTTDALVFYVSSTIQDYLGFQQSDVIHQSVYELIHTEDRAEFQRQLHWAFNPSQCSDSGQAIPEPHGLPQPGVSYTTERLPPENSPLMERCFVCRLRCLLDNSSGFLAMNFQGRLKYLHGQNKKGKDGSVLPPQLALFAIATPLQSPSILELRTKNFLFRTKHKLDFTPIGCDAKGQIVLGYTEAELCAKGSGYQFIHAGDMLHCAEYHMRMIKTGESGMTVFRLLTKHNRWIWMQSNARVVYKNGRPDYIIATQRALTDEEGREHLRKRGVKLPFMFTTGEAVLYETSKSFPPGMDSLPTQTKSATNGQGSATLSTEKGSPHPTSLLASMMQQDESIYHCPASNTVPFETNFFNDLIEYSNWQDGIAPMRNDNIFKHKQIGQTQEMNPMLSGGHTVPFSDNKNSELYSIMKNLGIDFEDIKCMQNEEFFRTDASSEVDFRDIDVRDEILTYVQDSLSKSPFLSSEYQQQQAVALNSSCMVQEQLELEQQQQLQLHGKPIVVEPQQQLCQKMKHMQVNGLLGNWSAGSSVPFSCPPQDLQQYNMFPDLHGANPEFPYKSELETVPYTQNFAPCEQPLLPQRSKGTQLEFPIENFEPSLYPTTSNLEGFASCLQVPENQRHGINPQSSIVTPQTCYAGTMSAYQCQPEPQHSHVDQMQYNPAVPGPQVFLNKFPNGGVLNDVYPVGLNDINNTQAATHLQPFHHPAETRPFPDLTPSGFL
T1 sequence (Q0WXX3 1-790 partner): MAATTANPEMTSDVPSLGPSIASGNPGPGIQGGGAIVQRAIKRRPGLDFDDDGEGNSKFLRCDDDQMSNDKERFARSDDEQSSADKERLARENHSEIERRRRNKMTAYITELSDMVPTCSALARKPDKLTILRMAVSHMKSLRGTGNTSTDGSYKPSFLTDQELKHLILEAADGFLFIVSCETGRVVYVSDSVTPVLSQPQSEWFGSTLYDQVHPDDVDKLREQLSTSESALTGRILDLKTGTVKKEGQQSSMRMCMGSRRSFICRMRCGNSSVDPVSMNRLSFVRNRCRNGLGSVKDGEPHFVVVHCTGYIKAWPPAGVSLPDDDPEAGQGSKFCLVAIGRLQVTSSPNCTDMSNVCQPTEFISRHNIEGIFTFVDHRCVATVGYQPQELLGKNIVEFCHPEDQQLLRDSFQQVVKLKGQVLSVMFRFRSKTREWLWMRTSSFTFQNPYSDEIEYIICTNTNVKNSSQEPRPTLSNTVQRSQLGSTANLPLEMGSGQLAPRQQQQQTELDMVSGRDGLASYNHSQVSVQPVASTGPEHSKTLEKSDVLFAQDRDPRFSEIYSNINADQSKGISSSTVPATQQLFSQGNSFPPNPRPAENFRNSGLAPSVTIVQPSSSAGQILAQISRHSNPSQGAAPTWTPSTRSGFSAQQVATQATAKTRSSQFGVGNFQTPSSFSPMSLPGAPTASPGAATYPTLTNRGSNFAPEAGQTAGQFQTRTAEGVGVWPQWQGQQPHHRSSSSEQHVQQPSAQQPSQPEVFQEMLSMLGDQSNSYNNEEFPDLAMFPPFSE

## Clc1cc2c(cc1Cl)Oc1cc(Cl)c(Cl)cc1O2 [TCDD, 2,3,7,8-tetrachlorodibenzo-p-dioxin]
Example 1, arnt spike 2 ug
  spot density, difference TCDD treated (+) minus DMSO treated (-): 224497
Example 1, arnt spike 2 ug, TCDD (+), average of two replicates
  spot density, average: 303679
Example 1, arnt spike 2 ug, TCDD (+), single replicate
  spot density: 308831 and 298526
Example 1, normal protocol, no ARNT added
  spot density, difference TCDD treated (+) minus DMSO treated (-): 49541
Example 1, normal protocol, no ARNT added, TCDD (+), average of two replicates
  spot density, average: 149868
Example 1, normal protocol, no ARNT added, TCDD (+), single replicate
  spot density: 157620 and 142115
Example 2, 0.5 ug arnt
  spot density, difference TCDD treated (+) minus DMSO treated (-): 129849
Example 2, 0.5 ug arnt, TCDD (+), average of two replicates
  spot density, average: 174210
Example 2, 0.5 ug arnt, TCDD (+), single replicate
  spot density: 184049 and 164371
Example 2, 2.0 ug arnt
  spot density, difference TCDD treated (+) minus DMSO treated (-): 209747
Example 2, 2.0 ug arnt, TCDD (+), average of two replicates
  spot density, average: 270107
Example 2, 2.0 ug arnt, TCDD (+), single replicate
  spot density: 281912 and 258302
Example 3, normal, anti-Ah receptor probe
  density, difference TCDD treated (+) minus DMSO treated (-): 77724
Example 3, normal, anti-Ah receptor probe, TCDD (+), average of two replicates
  density, average: 169988
Example 3, normal, probed with anti-Ah receptor/alkaline phosphatase, TCDD (+), single replicate
  density: 177175 and 162801
